Test results taken from patent US20060069132A1, “Azolecarboxamide herbicides” (priority 2004, published 2006).

How the values were obtained:
redroot pigweed = assay: Test A pre-/postemergence herbicide test; assay type: in vivo, Amaranthus retroflexus
Summary of the method: (§1)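 Greenhouse injury scoring (0–100, complete control = 100) at approximately ten days follows simultaneous pre- and postemergence application. Soil received a directed spray after seeding; seedlings of 2–10 cm at the one- to two-leaf stage were sprayed to runoff.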

pigweed = assay: Test B pre-/postemergence herbicide test; assay type: in vivo, Amaranthus retroflexus; settings: for Plant response rating, Pigweed: preemergence; for Pigweed plant response rating: postemergence, visual rating, scale 0 (no effect) to 100 (complete control)
Summary of the method: (§2)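 Evaluation is visual, comparing treated with control plants on a scale where 0 means no effect and 100 means full control. Treatments were preemergence, or postemergence on seedlings 2–18 cm tall, and held 13–15 days in the greenhouse.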

rice [1] = assay: Test B pre-/postemergence herbicide test; assay type: in vivo, Oryza sativa; settings: preemergence
Summary of the method: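 Plants compared with untreated controls 13–15 days post-treatment and given a visual 0–100 injury score. Applications: preemergence to seeds; postemergence at 1- to 4-leaf (2–18 cm); paddy species flooded, 2-leaf stage. Vehicle non-phytotoxic, surfactant included.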

cocklebur = assay: Test B pre-/postemergence herbicide test; assay type: in vivo, Xanthium strumarium; settings: for Plant response rating, Cocklebur: preemergence; for Cocklebur plant response rating: postemergence, visual rating, scale 0 (no effect) to 100 (complete control)
Summary of the method: (§3)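 Seeds were planted and treated preemergence with compounds formulated in a non-phytotoxic solvent mixture containing surfactant, while plants at the 1- to 4-leaf stage (2 to 18 cm) received postemergence sprays. Flooded paddy plants were grown to the 2-leaf stage. After 13 to 15 days in a greenhouse, injury was visually rated 0–100 against untreated controls.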

corn = assay: Test B pre-/postemergence herbicide test; assay type: in vivo, Zea mays; settings: for Plant response rating, Corn: preemergence; for Corn plant response rating: postemergence, visual rating, scale 0 (no effect) to 100 (complete control)
Summary of the method: as §2

barnyardgrass [2] = assay: Test A pre-/postemergence herbicide test; assay type: in vivo, Echinochloa crus-galli
Summary of the method: as §1

giant foxtail [3] = assay: Test A pre-/postemergence herbicide test; assay type: in vivo, Setaria faberi
Summary of the method: as §1

wheat = assay: Test B postemergence herbicide test; assay type: in vivo, Triticum aestivum; set-up: key to Wheat plant response rating: 0 = no effect, 100 = complete control; settings: postemergence, 500 g ai/ha; visual rating, scale 0 (no effect) to 100 (complete control)
Summary of the method: (§4)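 Each value is a visual 0–100 response rating taken against controls 13 to 15 days after treatment in the greenhouse. Plants received formulated chemical postemergence at the 1- to 4-leaf stage or, in flooded paddy, at the 2-leaf stage.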

ducksalad = assay: Test B flooded paddy test; assay type: in vivo, Heteranthera limosa; settings: 1000 g ai/ha, visual rating, scale 0 to 100 (0 no effect, 100 complete control), 13 to 15 days
Summary of the method: (§5)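 Postemergence plants were sprayed with formulated test chemicals at 2 to 18 cm height (1- to 4-leaf stage); paddy species were grown to the 2-leaf stage. After 13 to 15 days in a greenhouse, injury was rated visually against untreated controls on a 0–100 scale (0 = no effect, 100 = complete control).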

morningglory [4] = assay: Test B pre-/postemergence herbicide test; assay type: in vivo, Ipomoea coccinea; settings: for Plant response rating, Morningglory: preemergence; for Morningglory plant response rating: postemergence, visual rating, scale 0 (no effect) to 100 (complete control)
Summary of the method: as §3

rice [5] = assay: Test B flooded paddy test; assay type: in vivo, Oryza sativa; settings: 1000 g ai/ha, visual rating, scale 0 to 100 (0 no effect, 100 complete control), 13 to 15 days
Summary of the method: as §4

barnyardgrass [6] = assay: Test B pre-/postemergence herbicide test; assay type: in vivo, Echinochloa crus-galli; settings: for Plant response rating, Barnyardgrass: preemergence; for Barnyardgrass plant response rating: postemergence, visual rating, scale 0 (no effect) to 100 (complete control)
Summary of the method: as §3

morningglory [7] = assay: Test A pre-/postemergence herbicide test; assay type: in vivo, Ipomoea spp.
Summary of the method: as §1

[8] = system: small flower umbrella sedge; assay: Test B flooded paddy test; assay type: in vivo, Cyperus difformis; settings: 1000 g ai/ha, visual rating, scale 0 to 100 (0 no effect, 100 complete control), 13 to 15 days
Summary of the method: as §5

large crabgrass [9] = assay: Test B pre-/postemergence herbicide test; assay type: in vivo, Digitaria sanguinalis; settings: for Plant response rating, Crabgrass, Large: preemergence; for Crabgrass, Large plant response rating: postemergence, visual rating, scale 0 (no effect) to 100 (complete control)
Summary of the method: as §2

velvetleaf [10] = assay: Test A pre-/postemergence herbicide test; assay type: in vivo, Abutilon theophrasti
Summary of the method: as §1

Surinam grass = assay: Test B pre-/postemergence herbicide test; assay type: in vivo, Urochloa decumbens; settings: for Plant response rating, Surinam Grass: preemergence; for Surinam Grass plant response rating: postemergence, visual rating, scale 0 (no effect) to 100 (complete control)
Summary of the method: as §2

blackgrass = assay: Test B postemergence herbicide test; assay type: in vivo, Alopecurus myosuroides; settings: postemergence, visual rating, scale 0 (no effect) to 100 (complete control)
Summary of the method: as §5

barnyardgrass [11] = assay: Test B flooded paddy test; assay type: in vivo, Echinochloa crus-galli; settings: 1000 g ai/ha, visual rating, scale 0 to 100 (0 no effect, 100 complete control), 13 to 15 days
Summary of the method: as §5

velvetleaf [12] = assay: Test B pre-/postemergence herbicide test; assay type: in vivo, Abutilon theophrasti; settings: for Plant response rating, Velvetleaf: preemergence; for Velvetleaf plant response rating: postemergence, visual rating, scale 0 (no effect) to 100 (complete control)
Summary of the method: as §2

wild oat = assay: Test B postemergence herbicide test; assay type: in vivo, Avena fatua; settings: postemergence, visual rating, scale 0 (no effect) to 100 (complete control)
Summary of the method: as §4

lambsquarters = assay: Test B pre-/postemergence herbicide test; assay type: in vivo, Chenopodium album; settings: for Plant response rating, Lambsquarters: preemergence; for Lambsquarters plant response rating: postemergence, visual rating, scale 0 (no effect) to 100 (complete control)
Summary of the method: as §2

large crabgrass [13] = assay: Test A pre-/postemergence herbicide test; assay type: in vivo, Digitaria sanguinalis
Summary of the method: as §1

giant foxtail [14] = assay: Test B pre-/postemergence herbicide test; assay type: in vivo, Setaria faberi; settings: for Plant response rating, Foxtail, Giant: preemergence; for Foxtail, Giant plant response rating: postemergence, visual rating, scale 0 (no effect) to 100 (complete control)
Summary of the method: as §2

[15] = Postemergence, 500 g ai/ha, 0 to 100 scale, 0 no effect, 100 complete control
[16] = Postemergence, 2000 g ai/ha, 0 to 100 scale, 0 no effect, 100 complete control
[17] = Preemergence, 2000 g ai/ha, visual rating, 0 to 100 scale (0 no effect, 100 complete control)
[18] = preemergence, 500 g ai/ha, visual injury, 0 to 100 scale (0 no effect, 100 complete control)
[19] = 500 g ai/ha, visual rating 0-100, 0 no effect, 100 complete control
[20] = 125 g ai/ha, 0 to 100 scale, 0 is no effect, 100 is complete control
[21] = Preemergence, 500 g ai/ha, visual rating, 0 to 100 scale (0 no effect, 100 complete control)

## CCNC(=O)c1cc(C)cc(NC(=O)c2cc(C(C)(C)C)nn2CC)n1 [Compound 150]
Redroot pigweed; [15]
  Pigweed plant response rating: 80
Redroot pigweed; [16]
  Plant response rating, Pigweed: 75
Redroot pigweed; [17]
  Pigweed plant response rating: 100
Redroot pigweed; [18]
  Pigweed plant response rating: 75
pigweed; [19]
  Plant response rating, Pigweed: 100
pigweed; 125 g ai/ha
  Pigweed plant response rating: 70
pigweed; 500 g ai/ha
  Pigweed plant response rating: 90
pigweed; [20]
  Plant response rating, Pigweed: 70
Rice [1]; [19]
  Plant response rating, Rice: 40
Rice [1]; [20]
  Plant response rating, Rice: 0
cocklebur; [19]
  Plant response rating, Cocklebur: 0
cocklebur; 125 g ai/ha
  Cocklebur plant response rating: 60
cocklebur; 500 g ai/ha
  Cocklebur plant response rating: 80
cocklebur; [20]
  Plant response rating, Cocklebur: 0
corn; [19]
  Plant response rating, Corn: 20
corn; 125 g ai/ha
  Corn plant response rating: 10
corn; 500 g ai/ha
  Corn plant response rating: 50
corn; [20]
  Plant response rating, Corn: 0
Barnyardgrass [2]; [15]
  Barnyardgrass plant response rating: 30
Barnyardgrass [2]; [16]
  Plant response rating, Barnyardgrass: 65
Barnyardgrass [2]; [21]
  Barnyardgrass plant response rating: 50
Barnyardgrass [2]; [17]
  Barnyardgrass plant response rating: 80
Giant foxtail [3]; [15]
  Foxtail, Giant plant response rating: 20
Giant foxtail [3]; [16]
  Plant response rating, Foxtail, Giant: 25
Giant foxtail [3]; [21]
  Foxtail, Giant plant response rating: 15
Giant foxtail [3]; [17]
  Foxtail, Giant plant response rating: 55
wheat
  Wheat plant response rating: 10
ducksalad
  Ducksalad plant response rating: 20
Morningglory [4]; [19]
  Plant response rating, Morningglory: 20
Morningglory [4]; 125 g ai/ha
  Morningglory plant response rating: 20
Morningglory [4]; 500 g ai/ha
  Morningglory plant response rating: 40
Morningglory [4]; [20]
  Plant response rating, Morningglory: 0
Rice [5]
  Rice plant response rating: 40
Barnyardgrass [6]; [19]
  Plant response rating, Barnyardgrass: 80
Barnyardgrass [6]; 125 g ai/ha
  Barnyardgrass plant response rating: 10
Barnyardgrass [6]; 500 g ai/ha
  Barnyardgrass plant response rating: 50
Barnyardgrass [6]; [20]
  Plant response rating, Barnyardgrass: 30
Morningglory [7]; [15]
  Morningglory plant response rating: 0
Morningglory [7]; [16]
  Plant response rating, Morningglory: 10
Morningglory [7]; [21]
  Morningglory plant response rating: 10
Morningglory [7]; [17]
  Morningglory plant response rating: 35
[8]
  Sedge, Umbrella plant response rating: 50
Large crabgrass [9]; [19]
  Plant response rating, Crabgrass, Large: 10
Large crabgrass [9]; 125 g ai/ha
  Crabgrass, Large plant response rating: 10
Large crabgrass [9]; 500 g ai/ha
  Crabgrass, Large plant response rating: 10
Large crabgrass [9]; [20]
  Plant response rating, Crabgrass, Large: 0
Velvetleaf [10]; [15]
  Velvetleaf plant response rating: 25
Velvetleaf [10]; [16]
  Plant response rating, Velvetleaf: 15
Velvetleaf [10]; [17]
  Velvetleaf plant response rating: 50
Velvetleaf [10]; [18]
  Velvetleaf plant response rating: 20
Surinam grass; [19]
  Plant response rating, Surinam Grass: 10
Surinam grass; 125 g ai/ha
  Surinam Grass plant response rating: 10
Surinam grass; 500 g ai/ha
  Surinam Grass plant response rating: 40
Surinam grass; [20]
  Plant response rating, Surinam Grass: 10
blackgrass; 125 g ai/ha
  Blackgrass plant response rating: 0
blackgrass; 500 g ai/ha
  Blackgrass plant response rating: 10
Barnyardgrass [11]
  Barnyardgrass plant response rating: 70
Velvetleaf [12]; [19]
  Plant response rating, Velvetleaf: 10
Velvetleaf [12]; 125 g ai/ha
  Velvetleaf plant response rating: 20
Velvetleaf [12]; 500 g ai/ha
  Velvetleaf plant response rating: 60
Velvetleaf [12]; [20]
  Plant response rating, Velvetleaf: 0
Wild oat; 125 g ai/ha
  Oat, Wild plant response rating: 20
Wild oat; 500 g ai/ha
  Oat, Wild plant response rating: 20
lambsquarters; [19]
  Plant response rating, Lambsquarters: 100
lambsquarters; 125 g ai/ha
  Lambsquarters plant response rating: 50
lambsquarters; 500 g ai/ha
  Lambsquarters plant response rating: 70
lambsquarters; [20]
  Plant response rating, Lambsquarters: 0
Large crabgrass [13]; [15]
  Crabgrass, Large plant response rating: 15
Large crabgrass [13]; [16]
  Plant response rating, Crabgrass, Large: 50
Large crabgrass [13]; [21]
  Crabgrass, Large plant response rating: 25
Large crabgrass [13]; [17]
  Crabgrass, Large plant response rating: 50
Giant foxtail [14]; [19]
  Plant response rating, Foxtail, Giant: 60
Giant foxtail [14]; 125 g ai/ha
  Foxtail, Giant plant response rating: 0
Giant foxtail [14]; 500 g ai/ha
  Foxtail, Giant plant response rating: 10
Giant foxtail [14]; [20]
  Plant response rating, Foxtail, Giant: 0
